From PubChem BioAssay AID1963830 (Molecular Pharmacology Branch, DTP, NCI, 2024)

System: 922993-354-T-J3-PDC complex spheroid viability
Assay: Anticancer human tumor 922993-354-T-J3-PDC patient-derived endometrial carcinoma cell line growth inhibition [POLQ]
Conditions: for IC50: curve of first compound; for viability, T/C: stronger effect = lower value
Experimental: Multicellular complex tumor spheroid response to Polymerase (POL) inhibitors (novobiocin, ART-558, RP6685) in combination with a variety of drugs and investigational agents in selected tumor cell lines
The POL inhibitors (novobiocin, ART-558, and RP6685) were evaluated both individually and in combination with standard of care and investigational anticancer small molecules within a complex spheroid model of solid tumors. . Complex spheroids include a stromal component modeled by human endothelial cells (HUVEC) and fibroblasts modeled by human mesenchymal stem cells (MSCs). The concentration ranges selected for each drug and investigational agent were based upon clinically achievable concentrations if the clinical Cmax of the agent was known.
Compounds. The drugs and investigational agents: novobiocin (NSC847541), ART-558 (NSC835418), RP-6685 (NSC848927), peposertib (NSC802822), ceralasertib (NSC780249), elimusertib (NSC800525), camonsertib (NSC841442), AZD-1390 (NSC803789), olaparib (NSC753686), talazoparib (NSC767125), rucaparib (NSC756644), sotorasib (NSC818433), MRTX-1133 (NSC836407), SN-38 (NSC673596), topotecan (NSC609699), epotoside (NSC141540), doxorubicin (NSC123127), gemcitabine (NSC613327), 5-fluorouracil (NSC19893), paclitaxel (NSC125973), vemurafenib (NSC761431), MSA-2 (NSC828583), SN-011 (NSC837082), adavosertib (NSC754352), prexasertib (NSC758257), carboplatin (NSC241240) and oxaliplatin (NSC266046), were obtained from the National Cancer Institute (NCI) Developmental Therapeutics Program Chemical Repository (21). The FDA-approved anticancer drug set is available from the Developmental Therapeutics Program at https://dtp.cancer.gov/organization/dscb/obtaining/. […] The stock solutions were prepared in dimethyl sulfoxide (DMSO, Sigma-Aldrich, St. Louis, MO, cat. D2650), except for the platinum compounds which were prepared in saline (Quality Biological, Gaithersburg, MD, cat. 114-055-101), at 800-fold the tested concentration and stored at -70 degrees C prior to their use. All drugs and investigational agents were tested over a range starting from a high concentration at or near the clinical Cmax and decreasing in half-log increments. If the clinical Cmax for an agent had not been determined, the highest concentration tested was 10 microM, except for SN-38, which was tested at a high concentration of 1 microM.
Cell Culture. All cells were maintained in an incubator at 37 degrees C and 5% CO2 with 95% humidity. The PDC lines were cultured according to standard operating procedures established by the NCI PDMR (https://pdmr.cancer.gov). Table 3 of the manuscript, lists the cell lines along with the number of the three cell types plated to form the mct-spheroids and media for tumor cell growth. After thawing, all PDC lines, except 997537-175-T-J1-PDC and 415267-285-R-J2-PDC, were cultured in Matrigel-coated flasks prepared with a working solution of 1X Ham's F-12 nutrient mix, without supplementation (Thermo Fisher Scientific, cat. 11765054), 100 U/mL penicillin-streptomycin (Thermo Fisher Scientific, cat. 15140122), and 2.5% Matrigel (Corning Inc., Corning, NY, cat. 354248) for the first three passages. The two PDC lines 997537-175-T-J1-PDC and 415267-285-R-J2-PDC were cultured on uncoated flasks. The 857933-349-R-J2-PDC line was cultured in 6C/Colon 1B media containing advanced DMEM/F-12 (Thermo Fisher Scientific, cat. 12634028), 10 mM HEPES (Thermo Fisher Scientific, cat. 15630080), 1X GlutaMAX supplement (Thermo Fisher Scientific, cat. 35050061), 0.1 mg/mL primocin (InvivoGen, San Diego, CA, cat. ant-pm-2), 10% defined fetal bovine serum, heat inactivated (HyClone Laboratories Inc., Logan, UT, cat. SH30070.03HI), 50% L-WRN conditioned media (ATCC, cat. CRL-3276), 1.25 mM N-Acetyl-L-cysteine (Sigma-Aldrich, cat. A9165), 10 mM nicotinamide (Sigma-Aldrich, cat. N0636), 1X B-27 supplement (Thermo Fisher Scientific, cat. 17504044), 1X N-2 supplement (Thermo Fisher Scientific, cat. […]

[1] = second compound 0.0316 µM, first compound 0.0316 µM
[2] = second compound 0.0316 µM, first compound 0.1 µM
[3] = second compound 0.0316 µM, first compound 0.316 µM
[4] = second compound 0.0316 µM, first compound 1 µM
[5] = second compound 0.0316 µM, first compound 3.16 µM
[6] = second compound 0.0316 µM, first compound 10 µM
[7] = second compound 0.1 µM, first compound 0.0316 µM
[8] = second compound 0.1 µM, first compound 0.1 µM
[9] = second compound 0.1 µM, first compound 0.316 µM
[10] = second compound 0.1 µM, first compound 1 µM
[11] = second compound 0.1 µM, first compound 3.16 µM
[12] = second compound 0.1 µM, first compound 10 µM
[13] = second compound 0.316 µM, first compound 0.0316 µM
[14] = second compound 0.316 µM, first compound 0.1 µM
[15] = second compound 0.316 µM, first compound 0.316 µM
[16] = second compound 0.316 µM, first compound 1 µM
[17] = second compound 0.316 µM, first compound 3.16 µM
[18] = second compound 0.316 µM, first compound 10 µM
[19] = second compound 1 µM, first compound 0.0316 µM
[20] = second compound 1 µM, first compound 0.1 µM
[21] = second compound 1 µM, first compound 0.316 µM
[22] = second compound 1 µM, first compound 1 µM
[23] = second compound 1 µM, first compound 3.16 µM
[24] = second compound 1 µM, first compound 10 µM
[25] = second compound 3.16 µM, first compound 0.0316 µM
[26] = second compound 3.16 µM, first compound 0.1 µM
[27] = second compound 3.16 µM, first compound 0.316 µM
[28] = second compound 3.16 µM, first compound 1 µM
[29] = second compound 3.16 µM, first compound 3.16 µM
[30] = second compound 3.16 µM, first compound 10 µM
[31] = second compound 10 µM, first compound 0.0316 µM
[32] = second compound 10 µM, first compound 0.1 µM
[33] = second compound 10 µM, first compound 0.316 µM
[34] = second compound 10 µM, first compound 1 µM
[35] = second compound 10 µM, first compound 3.16 µM
[36] = second compound 10 µM, first compound 10 µM
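Further: spheroids exposed to the agents for one week.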
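Wherever viability, T/C is given: 100% = DMSO vehicle control wells.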

CCc1cc2c(N3CCc4c(cc(Cn5ccnc5)cc4-c4cn(C)nc4C(F)(F)F)C3=O)ccnc2c(OC)n1 + Nc1ccc(C#CCN(C(=O)Cc2ncc(C(F)(F)F)cc2C(F)(F)F)c2ccc(F)cc2)nn1
IC50 (second compound 0.0316 µM): > 10 µM | IC50 (second compound 0.1 µM): > 10 µM | IC50 (second compound 0.316 µM): > 10 µM | IC50 (second compound 1 µM): > 10 µM | IC50 (second compound 3.16 µM): > 10 µM | IC50 (second compound 10 µM): > 10 µM | viability, T/C [1]: 104% | viability, T/C [2]: 103% | viability, T/C [3]: 105% | viability, T/C [4]: 107% | viability, T/C [5]: 107% | viability, T/C [6]: 102% | viability, T/C [7]: 106% | viability, T/C [8]: 102% | viability, T/C [9]: 107% | viability, T/C [10]: 108% | viability, T/C [11]: 106% | viability, T/C [12]: 101% | viability, T/C [13]: 105% | viability, T/C [14]: 102% | viability, T/C [15]: 103% | viability, T/C [16]: 105% | viability, T/C [17]: 103% | viability, T/C [18]: 99.6% | viability, T/C [19]: 105% | viability, T/C [20]: 105% | viability, T/C [21]: 102% | viability, T/C [22]: 108% | viability, T/C [23]: 105% | viability, T/C [24]: 94.3% | viability, T/C [25]: 102% | viability, T/C [26]: 99.5% | viability, T/C [27]: 104% | viability, T/C [28]: 99% | viability, T/C [29]: 106% | viability, T/C [30]: 97.5% | viability, T/C [31]: 99.2% | viability, T/C [32]: 102% | viability, T/C [33]: 99.4% | viability, T/C [34]: 96.6% | viability, T/C [35]: 100% | viability, T/C [36]: 91%

C#Cc1c(F)ccc2cc(O)cc(-c3ncc4c(N5CC6CCC(C5)N6)nc(OCC56CCCN5CC(F)C6)nc4c3F)c12 (centres undefined) + Cc1cccc(N(C)C(=O)C2C(O)CCN2c2nc(C)cc(C(F)(F)F)c2C#N)c1
IC50 (second compound 0.0316 µM): > 10 µM | IC50 (second compound 0.1 µM): > 10 µM | IC50 (second compound 0.316 µM): > 10 µM | IC50 (second compound 1 µM): > 10 µM | IC50 (second compound 3.16 µM): > 10 µM | IC50 (second compound 10 µM): > 10 µM | viability, T/C [1]: 107% | viability, T/C [2]: 102% | viability, T/C [3]: 104% | viability, T/C [4]: 106% | viability, T/C [5]: 95.8% | viability, T/C [6]: 91.3% | viability, T/C [7]: 107% | viability, T/C [8]: 95% | viability, T/C [9]: 94% | viability, T/C [10]: 93.7% | viability, T/C [11]: 87.9% | viability, T/C [12]: 98.7% | viability, T/C [13]: 109% | viability, T/C [14]: 108% | viability, T/C [15]: 98.5% | viability, T/C [16]: 101% | viability, T/C [17]: 95% | viability, T/C [18]: 91.7% | viability, T/C [19]: 102% | viability, T/C [20]: 107% | viability, T/C [21]: 98.7% | viability, T/C [22]: 94.5% | viability, T/C [23]: 97.8% | viability, T/C [24]: 89.2% | viability, T/C [25]: 106% | viability, T/C [26]: 101% | viability, T/C [27]: 104% | viability, T/C [28]: 104% | viability, T/C [29]: 99.5% | viability, T/C [30]: 86.2% | viability, T/C [31]: 103% | viability, T/C [32]: 97.2% | viability, T/C [33]: 98.1% | viability, T/C [34]: 94.8% | viability, T/C [35]: 100% | viability, T/C [36]: 78.4%
